Here are results for 21 compounds from patent publication US11767322B2 (BRISTOL-MYERS SQUIBB COMPANY, priority 2020, dated 2023).

Read-outs that look alike come from different tables or passages of the source.

Assay [1] has as its target T1, His-GST-TVMV-hRIPK1(1-324) (Homo sapiens, UniProt Q13546).
T1 construct: The coding region of human RIPK1(1-324) flanked by NdeI site at 5′ end; made in house; host or cells: Spodoptera frugiperda Sf9 insect cells (baculovirus, Bac-to-Bac)
T1 sequence (Q13546 1-324): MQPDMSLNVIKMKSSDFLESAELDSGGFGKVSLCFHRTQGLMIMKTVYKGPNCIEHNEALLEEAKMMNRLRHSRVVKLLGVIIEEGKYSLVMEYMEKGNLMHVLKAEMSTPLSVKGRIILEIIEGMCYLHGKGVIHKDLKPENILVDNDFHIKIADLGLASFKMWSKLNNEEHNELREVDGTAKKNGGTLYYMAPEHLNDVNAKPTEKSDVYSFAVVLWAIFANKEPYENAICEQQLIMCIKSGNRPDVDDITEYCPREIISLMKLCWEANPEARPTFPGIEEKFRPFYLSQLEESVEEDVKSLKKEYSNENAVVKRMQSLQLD
Description: biochemical. The assay is classed as binding. The following applies: HTRF probe displacement, 1 h at rt; read-out: RIPK1 IC50. In general terms: In TR-FRET formats the signal depends on donor and acceptor labels being close together.

The test system of assay [2] is MLKL phosphorylation in HT29-L23 human colorectal adenocarcinoma cells. Description: MLKL phosphorylation high-content assay. The assay is classed as cell-based. The following applies: 6 h, necroptosis induced with TNFα, SMAC mimetic and Z-VAD, 6 h, maximal inhibition defined by Nec1s.
For assay [3], the target named is GST-tagged PIK3Cδ in complex with PIK3R1 (Homo sapiens, UniProt O00329). Description: PI3Kδ HTRF binding assay. The following applies: HTRF probe displacement, 1 h at rt; read-out: PIK3CD IC50.
[4] abbreviates: Homo sapiens, read-out: pMLKL IC50, HT29-L23 cells.
Setting [5] is: read-out: pMLKL IC50, HT29-L23 cells.

Chain of GST-tagged PIK3Cδ in complex with PIK3R1 (O00329 whole entry): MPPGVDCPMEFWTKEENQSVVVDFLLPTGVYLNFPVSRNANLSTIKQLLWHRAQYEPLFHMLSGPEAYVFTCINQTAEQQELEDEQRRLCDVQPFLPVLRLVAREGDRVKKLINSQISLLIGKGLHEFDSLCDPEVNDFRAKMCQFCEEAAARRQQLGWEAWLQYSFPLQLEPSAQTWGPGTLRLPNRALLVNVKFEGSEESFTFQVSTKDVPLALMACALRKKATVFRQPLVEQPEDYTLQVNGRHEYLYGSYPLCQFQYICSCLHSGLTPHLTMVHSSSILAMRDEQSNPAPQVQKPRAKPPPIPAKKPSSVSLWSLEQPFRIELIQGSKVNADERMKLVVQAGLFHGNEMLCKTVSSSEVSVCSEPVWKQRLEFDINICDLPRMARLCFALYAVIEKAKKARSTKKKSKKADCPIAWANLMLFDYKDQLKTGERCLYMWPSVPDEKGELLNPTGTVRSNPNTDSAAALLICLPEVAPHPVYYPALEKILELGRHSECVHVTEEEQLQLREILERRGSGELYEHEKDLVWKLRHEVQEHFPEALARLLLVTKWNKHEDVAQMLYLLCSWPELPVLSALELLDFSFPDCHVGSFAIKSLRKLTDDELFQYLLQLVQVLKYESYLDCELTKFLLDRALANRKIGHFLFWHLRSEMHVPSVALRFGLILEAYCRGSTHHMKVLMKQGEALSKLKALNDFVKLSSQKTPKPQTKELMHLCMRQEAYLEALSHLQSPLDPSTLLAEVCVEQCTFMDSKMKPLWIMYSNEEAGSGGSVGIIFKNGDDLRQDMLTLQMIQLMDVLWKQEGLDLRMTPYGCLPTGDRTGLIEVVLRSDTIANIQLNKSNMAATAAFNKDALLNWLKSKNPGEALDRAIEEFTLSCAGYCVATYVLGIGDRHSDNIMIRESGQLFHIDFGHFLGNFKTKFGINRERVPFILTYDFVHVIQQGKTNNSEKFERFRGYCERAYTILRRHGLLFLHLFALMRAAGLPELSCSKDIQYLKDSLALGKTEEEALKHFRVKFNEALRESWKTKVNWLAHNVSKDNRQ
Chain of GST-tagged PIK3Cδ in complex with PIK3R1 (P27986 whole entry partner): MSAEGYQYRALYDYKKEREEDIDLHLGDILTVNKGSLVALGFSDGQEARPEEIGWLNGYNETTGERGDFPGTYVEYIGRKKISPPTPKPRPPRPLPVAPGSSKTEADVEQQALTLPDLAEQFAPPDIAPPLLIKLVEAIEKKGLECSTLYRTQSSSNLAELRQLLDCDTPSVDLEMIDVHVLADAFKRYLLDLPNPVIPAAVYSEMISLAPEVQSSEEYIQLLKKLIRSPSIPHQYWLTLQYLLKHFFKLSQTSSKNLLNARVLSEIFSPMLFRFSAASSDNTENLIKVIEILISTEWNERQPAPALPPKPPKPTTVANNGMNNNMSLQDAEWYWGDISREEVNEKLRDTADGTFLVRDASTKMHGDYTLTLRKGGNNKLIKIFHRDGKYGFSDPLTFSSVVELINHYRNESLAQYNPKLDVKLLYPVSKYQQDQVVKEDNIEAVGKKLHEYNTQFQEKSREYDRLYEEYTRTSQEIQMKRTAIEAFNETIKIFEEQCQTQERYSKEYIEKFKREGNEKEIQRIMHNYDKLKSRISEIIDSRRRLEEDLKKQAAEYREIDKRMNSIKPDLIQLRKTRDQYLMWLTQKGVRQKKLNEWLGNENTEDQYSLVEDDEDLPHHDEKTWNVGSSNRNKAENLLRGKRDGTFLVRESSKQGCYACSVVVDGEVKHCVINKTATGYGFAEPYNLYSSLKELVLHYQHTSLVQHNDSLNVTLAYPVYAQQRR

Broadly, the IC50 is the concentration that gives 50% inhibition. Turning to `Nc1nc2cc(-c3ccc(Cl)c(C(=O)NC[C@H](F)[C@@H](O)c4ccc(F)cc4)c3F)ccn2n1` (single isomer, unassigned) [Example 296], the values for the concentration for half-maximal inhibition (IC50) in assay [1], in assay [2] (setting [4]) and in assay [3] were 15 nM, 22 nM and 10000 nM, respectively.

In the case of `Cc1ccc(-c2ccn3nc(N)nc3c2)c(F)c1C(=O)NCC(F)(F)C(=O)c1ccc(F)cc1` [Example 281, 3-(2-amino-[1,2,4]triazolo[1,5-a]pyridin-7-yl)-N-(2,2-difluoro-3-(4-fluorophenyl)-3-oxopropyl)-2-fluoro-6-methylbenzamide], the half-inhibitory concentration (IC50) in assay [1] was 7.2 nM; in assay [2] (setting [4]), 1.3 nM; in assay [3], more than 15000 nM.

In the case of `Nc1nc2cc(-c3ccc(Cl)c(C(=O)NCC[C@H](O)c4ccc(Cl)cc4)c3F)ccn2n1` [Example 153, (S)-3-(2-amino-[1,2,4]triazolo[1,5-a]pyridin-7-yl)-6-chloro-N-(3-(4-chlorophenyl)-3-hydroxypropyl)-2-fluorobenzamide], the concentration for half-maximal inhibition (IC50) in assay [1] was 4.1 nM; in assay [2] (setting [4]), 8.3 nM; in assay [3], more than 15000 nM.

Turning to `Cc1ccc(-c2ccn3nc(N)nc3c2)c(F)c1C(=O)NCCC(O)c1ccc(C(F)(F)F)cc1` (single isomer, unassigned) [Example 57, 3-(2-amino-[1,2,4]triazolo[1,5-a]pyridin-7-yl)-2-fluoro-N-(3-hydroxy-3-(4-(trifluoromethyl)phenyl)propyl)-6-methylbenzamide], the IC50 in assay [1] was 3.1 nM; in assay [2] (setting [5]), 1.9 nM; in assay [3], more than 15000 nM.

Regarding `Cc1ccc(-c2ccn3nc(N)nc3c2)c(F)c1C(=O)NCCC(O)c1ccccc1F` (single isomer, unassigned) [Example 71, 3-(2-amino-[1,2,4]triazolo[1,5-a]pyridin-7-yl)-2-fluoro-N-(3-(2-fluorophenyl)-3-hydroxypropyl)-6-methylbenzamide], the half-maximal inhibitory concentration (IC50) in assay [1] is 18 nM; in assay [2] (setting [5]), 21 nM; in assay [3], more than 15000 nM.

In the case of `Cc1c(C(=O)NCC[C@H](O)c2ccc(Cl)cc2)cc(-c2ccn3nc(N)nc3c2)c(F)c1F` [Example 99, (S)-5-(2-amino-[1,2,4]triazolo[1,5-a]pyridin-7-yl)-N-(3-(4-chlorophenyl)-3-hydroxypropyl)-3,4-difluoro-2-methylbenzamide], the results for the IC50 in assay [1], in assay [2] (setting [4]) and in assay [3] were 5.5 nM, 2.9 nM and more than 15000 nM, respectively.

Turning to `CCc1ccc(-c2ccn3nc(N)nc3c2)cc1C(=O)NCC[C@H](O)c1ccc(Cl)cc1` [Example 150, (S)-5-(2-amino-[1,2,4]triazolo[1,5-a]pyridin-7-yl)-N-(3-(4-chlorophenyl)-3-hydroxypropyl)-2-ethylbenzamide], the concentration for half-maximal inhibition (IC50) is 1.8 nM in assay [1], 5.7 nM in assay [2] (setting [4]) and more than 15000 nM in assay [3].

Regarding `Cc1ccc(-c2ccn3nc(N)nc3c2)c(F)c1C(=O)NCCC(c1ccccc1)C(F)(F)F` (racemic) [Example 11, 3-(2-amino-[1,2,4]triazolo[1,5-a]pyridin-7-yl)-2-fluoro-6-methyl-N-(4,4,4-trifluoro-3-phenylbutyl)benzamide], the IC50 in assay [1] is 1.2 nM; in assay [2] (setting [4]), 5.9 nM; in assay [3] it was more than 15000 nM.

Turning to `Cc1ccc(-c2ccn3nc(N)nc3c2)c(F)c1C(=O)NCCC(c1ccccc1)C(F)(F)F` (single isomer, unassigned) [Example 13, 3-(2-amino-[1,2,4]triazolo[1,5-a]pyridin-7-yl)-2-fluoro-6-methyl-N-(4,4,4-trifluoro-3-phenylbutyl)benzamide], the values for the IC50 in assay [1], in assay [2] (setting [5]) and in assay [3] were 0.6 nM, 27 nM and more than 15000 nM, respectively.

Consider `Nc1nc2cc(-c3ccc(Cl)c(C(=O)NCC(F)(F)C(=O)c4ccc(F)cc4)c3F)ccn2n1` [Example 280, 3-(2-amino-[1,2,4]triazolo[1,5-a]pyridin-7-yl)-6-chloro-N-(2,2-difluoro-3-(4-fluorophenyl)-3-oxopropyl)-2-fluorobenzamide], for which the IC50 came to 15 nM in assay [1], 1.4 nM in assay [2] (setting [4]) and 11000 nM in assay [3].

Turning to `Nc1nc2cc(-c3ccc(C(F)F)c(C(=O)NCC(F)(F)[C@@H](O)c4ccc(F)cc4)c3F)ccn2n1` [Example 295, (S)-3-(2-amino-[1,2,4]triazolo[1,5-a]pyridin-7-yl)-N-(2,2-difluoro-3-(4-fluorophenyl)-3-hydroxypropyl)-6-(difluoromethyl)-2-fluorobenzamide], the half-maximal inhibitory concentration (IC50) in assay [1] is 3.3 nM; in assay [2] (setting [4]) it was 1.4 nM; in assay [3], more than 15000 nM.

On to `Cc1cc(F)c(-c2ccn3nc(N)nc3c2)c(F)c1C(=O)NCC[C@H](O)c1ccc(Cl)cc1` [Example 277, (S)-3-(2-amino-[1,2,4]triazolo[1,5-a]pyridin-7-yl)-N-(3-(4-chlorophenyl)-3-hydroxypropyl)-2,4-difluoro-6-methylbenzamide], for which the results for the IC50 in assay [1], in assay [2] (setting [4]) and in assay [3] were 36 nM, 69 nM and more than 15000 nM, respectively.

Consider `Nc1nc2cc(-c3ccc(Cl)c(C(=O)NCC(F)(F)[C@@H](F)c4ccc(F)cc4)c3F)ccn2n1` [Example 282, (S)-3-(2-amino-[1,2,4]triazolo[1,5-a]pyridin-7-yl)-6-chloro-2-fluoro-N-(2,2,3-trifluoro-3-(4-fluorophenyl)propyl)benzamide], for which the IC50 in assay [1] was 2.2 nM; in assay [2] (setting [4]), 1.1 nM; in assay [3], more than 15000 nM.

Regarding `Nc1nc2cc(-c3ccc(Cl)c(C(=O)NCC(F)(F)C(O)c4cc(F)cc(F)c4)c3F)ccn2n1` (stereo not drawn) [Example 188, 3-(2-amino-[1,2,4]triazolo[1,5-a]pyridin-7-yl)-6-chloro-N-(3-(3,5-difluorophenyl)-2,2-difluoro-3-hydroxypropyl)-2-fluorobenzamide], the results for the IC50 in assay [1], in assay [2] (setting [5]) and in assay [3] were 6.3 nM, 0.3 nM and 9400 nM, respectively.

Take `Nc1nc2cc(-c3ccc(Cl)c(C(=O)NCCC(O)c4ccc(Cl)cn4)c3F)ccn2n1` (single isomer, unassigned) [Example 82, 3-(2-amino-[1,2,4]triazolo[1,5-a]pyridin-7-yl)-6-chloro-N-(3-(5-chloropyridin-2-yl)-3-hydroxypropyl)-2-fluorobenzamide]: the concentration for half-maximal inhibition (IC50) is 27 nM in assay [1], 26 nM in assay [2] (setting [4]) and 12000 nM in assay [3].

With `CC(O)(c1ccc(Cl)cc1)C(F)(F)CNC(=O)c1c(Cl)ccc(-c2ccn3nc(N)nc3c2)c1F` (single isomer, unassigned) [Example 224, 3-(2-amino-[1,2,4]triazolo[1,5-a]pyridin-7-yl)-6-chloro-N-(3-(4-chlorophenyl)-2,2-difluoro-3-hydroxybutyl)-2-fluorobenzamide], the concentration for half-maximal inhibition (IC50) was 5.2 nM in assay [1], 4.1 nM in assay [2] (setting [5]) and more than 15000 nM in assay [3].

Consider `Cc1ccc(-c2ccn3nc(N)nc3c2)c(F)c1C(=O)NCCC(C)(O)c1ccc(Cl)cc1` (single isomer, unassigned) [Example 60, 3-(2-amino-[1,2,4]triazolo[1,5-a]pyridin-7-yl)-N-(3-(4-chlorophenyl)-3-hydroxybutyl)-2-fluoro-6-methylbenzamide], for which the IC50 was 1 nM in assay [1], 1.3 nM in assay [2] (setting [5]) and more than 15000 nM in assay [3].

Regarding `Cc1ccc(-c2ccn3nc(N)nc3c2)c(F)c1C(=O)NCCC(O)c1c(F)cccc1F` (single isomer, unassigned) [Example 74, 3-(2-amino-[1,2,4]triazolo[1,5-a]pyridin-7-yl)-Nr-(3-(2,6-difluorophenyl)-3-hydroxypropyl)-2-fluoro-6-methylbenzamide], the values for the half-inhibitory concentration (IC50) in assay [1], in assay [2] (setting [4]) and in assay [3] were 13 nM, 8.2 nM and more than 15000 nM, respectively.

On to `Nc1nc2cc(-c3ccc(CF)c(C(=O)NCC(F)(F)[C@@H](O)c4ccc(F)cc4)c3F)ccn2n1` [Example 294, (S)-3-(2-amino-[1,2,4]triazolo[1,5-a]pyridin-7-yl)-N-(2,2-difluoro-3-(4-fluorophenyl)-3-hydroxypropyl)-2-fluoro-6-(fluoromethyl)benzamide], for which the IC50 in assay [1] was 1.9 nM; in assay [2] (setting [4]), 1.9 nM; in assay [3] it was more than 15000 nM.

`Nc1nc2cc(-c3ccc(Cl)c(C(=O)NCC(F)(F)C(O)c4ccc(OC(F)F)cc4)c3F)ccn2n1` (stereo not drawn) [Example 187, 3-(2-amino-[1,2,4]triazolo[1,5-a]pyridin-7-yl)-6-chloro-N-(3-(4-(difluoromethoxy)phenyl)-2,2-difluoro-3-hydroxypropyl)-2-fluorobenzamide]: the IC50 in assay [1] is 3.2 nM; in assay [2] (setting [5]) it was 1.7 nM; in assay [3] it was more than 15000 nM.

Consider `CC(O)(c1ccc(Cl)cc1)C(F)(F)CNC(=O)c1c(Cl)ccc(-c2ccn3nc(N)nc3c2)c1F` (single isomer, unassigned) [Example 223, 3-(2-amino-[1,2,4]triazolo[1,5-a]pyridin-7-yl)-6-chloro-N-(3-(4-chlorophenyl)-2,2-difluoro-3-hydroxybutyl)-2-fluorobenzamide], for which the half-inhibitory concentration (IC50) in assay [1] is 5.8 nM; in assay [2] (setting [5]) it was 71 nM; in assay [3] it was more than 15000 nM.
